Test results reported in ChEMBL document CHEMBL1201862, “PubChem BioAssay data set” (2004).
Active and inactive are the calls of the source.

Columns and labels:
[1] = biological target: Mitogen-activated protein kinase 10 (Homo sapiens, UniProt P53779); assay: Dose response biochemical screening assay for inhibitors of c-Jun N-Terminal Kinase 3 (JNK3). [Related pubchem assays: 746 ]
[2] = biological target: T1, fMet-Leu-Phe receptor (Homo sapiens, UniProt P21462); assay: FPR ligands, dose response (AID 519); format: functional
T1 sequence (P21462 whole entry): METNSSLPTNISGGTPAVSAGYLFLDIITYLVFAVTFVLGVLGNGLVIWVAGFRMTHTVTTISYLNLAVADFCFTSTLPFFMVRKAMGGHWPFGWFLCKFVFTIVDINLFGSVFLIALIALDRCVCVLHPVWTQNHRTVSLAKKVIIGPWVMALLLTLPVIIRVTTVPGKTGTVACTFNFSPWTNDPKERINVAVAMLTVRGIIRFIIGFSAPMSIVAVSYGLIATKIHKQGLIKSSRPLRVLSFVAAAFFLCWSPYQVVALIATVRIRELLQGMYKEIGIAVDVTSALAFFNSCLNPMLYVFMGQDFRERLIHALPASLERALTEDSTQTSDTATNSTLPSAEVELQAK

[3] = Luminescence Cell-Based Dose Retest to Confirm Inhibitors of Cancer Stem Cells. [Related pubchem assays (depositor defined):AID2717, AID2721]; format: functional; settings: Homo sapiens
[4] = biological target: T2, Mannose-6-phosphate isomerase (Homo sapiens, UniProt P34949); assay: human PMI inhibitors, high substrate, primary screen, biochemical, fluorescence intensity, high mannose 6-phosphate (AID 1220)
T2 sequence (P34949 whole entry): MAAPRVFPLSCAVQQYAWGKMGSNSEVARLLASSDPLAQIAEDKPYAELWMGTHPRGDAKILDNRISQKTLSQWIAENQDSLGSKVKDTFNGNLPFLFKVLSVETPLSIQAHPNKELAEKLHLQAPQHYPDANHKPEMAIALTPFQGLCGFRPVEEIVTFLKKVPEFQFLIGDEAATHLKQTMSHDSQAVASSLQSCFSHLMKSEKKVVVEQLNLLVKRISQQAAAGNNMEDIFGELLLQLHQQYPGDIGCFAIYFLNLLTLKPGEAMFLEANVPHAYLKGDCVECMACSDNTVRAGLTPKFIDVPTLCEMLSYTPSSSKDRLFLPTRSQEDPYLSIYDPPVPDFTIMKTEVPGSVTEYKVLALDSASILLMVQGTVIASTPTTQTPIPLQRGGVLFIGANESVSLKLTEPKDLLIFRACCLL

[5] = tested on: INS1; assay: beta cell apoptosis inhibitors, cytokine rescue, dose response, luminescence, retest (AID 449756); format: functional, cell-based; settings: Rattus norvegicus;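 note: cell death triggered by IL-1 beta plus TNF-alpha plus IFN-gamma mixture; protective hits raise ATP signal compared with cytokine alone wells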
[6] = HepG2 cell cytotoxicity, dose response, cytotoxicity control for non-replicating M. tuberculosis project (AID 489018); format: functional; settings: Mycobacterium tuberculosis
[7] = cells; format: functional
[8] = microbe, parasite or virus in culture; format: functional; settings: Mycobacterium tuberculosis
[9] = THP-1 cell cytotoxicity, dose response, cytotoxicity control for non-replicating M. tuberculosis project (AID 489025); format: functional
[10] = NIH-3T3 fibroblast cytotoxicity, dose response, cytotoxicity control, cell-based, fluorescence, Alamar Blue, secondary assay (AID 2327); format: functional;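 note: NIH-3T3 mouse fibroblasts cultured with fluconazole at 8 µg/mL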
[11] = C. albicans growth with fluconazole, confirmation, fluorescence, retest (AID 2467); format: functional, cell-based
[12] = Vero E6 cell cytotoxicity, dose response, cytotoxicity control for non-replicating M. tuberculosis project, secondary assay (AID 492998); format: functional, VeroE6; settings: Vero C1008

Mitogen-activated protein kinase 10, sequence (P53779 whole entry): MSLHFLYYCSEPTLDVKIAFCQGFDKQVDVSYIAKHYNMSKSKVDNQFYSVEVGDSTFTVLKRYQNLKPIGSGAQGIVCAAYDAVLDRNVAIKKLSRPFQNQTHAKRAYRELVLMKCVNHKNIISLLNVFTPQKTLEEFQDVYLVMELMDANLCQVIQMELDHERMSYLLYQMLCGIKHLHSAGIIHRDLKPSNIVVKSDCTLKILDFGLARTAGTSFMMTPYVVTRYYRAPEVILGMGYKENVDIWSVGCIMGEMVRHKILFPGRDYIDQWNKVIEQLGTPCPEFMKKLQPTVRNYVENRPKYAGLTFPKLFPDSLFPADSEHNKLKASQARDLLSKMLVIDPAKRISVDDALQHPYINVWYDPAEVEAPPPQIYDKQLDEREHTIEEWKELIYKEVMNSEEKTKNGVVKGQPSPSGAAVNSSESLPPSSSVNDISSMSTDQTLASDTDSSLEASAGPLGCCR

COc1ccc(CNC(=O)c2cnn3c(C(F)F)cc(C)nc23)cc1OC
IC50 [1]: > 31 µM (not active)

O=C(NCCN1CCOCC1)NC1(C(F)(F)F)Oc2ccc(Cl)cc2O1 (stereo not given)
Ki [2]: > 66.7 µM (inactive)
AC50 [3]: 7.37 µM (active)
IC50 [4]: > 50 µM (not active)

N#CCCC12CCCCC1=Nc1ccccc12 (stereo not given)
IC50 [1]: > 93.1 µM (not active)

Cc1ccccc1Nc1nn2c(=O)c3ccccc3nc2s1
IC50 [1]: 39.3 µM (not active)

CCOC(=O)N1CCN(Cc2cc(Cl)c3cccnc3c2O)CC1
AC50 [5]: 3.13 µM (active)
CC50 [6]: 11 µM (active)
IC50 [7]: 10.9 µM (active)
CC50 [8]: 4.95 µM (active)
CC50 [9]: 4.35 µM (active)
EC50 [10]: > 150 µM (inactive)
IC50 [4]: 11.8 µM (active)
EC50 [11]: 1.28 µM (active)
CC50 [12]: 2.64 µM (active)
